Results taken from patent US4145442A, “Phenoxy-hydroxypropylamines, their preparation, and method and pharmaceutical preparations for treating cardiovascular diseases” (priority 1972, dated 1979).
Like-named read-outs stand apart in the source and are kept apart here.

Columns and labels:
Type in all cases: in vivo
β-receptors of the heart [1] = target: T1, β-receptors of the heart (Felis catus, UniProt Q9TST6); experiment: Intrinsic activity on heart rate in reserpinized cat; settings: iv, anesthetized, vagotomized, i.v., read-out: Intrinsic activity % of maximal isoprenaline heart rate
T1 construct: from tissue; host or cells: heart of the anesthetized, reserpine-pretreated, vagotomized cat (in vivo)
Description: (§1) Compounds prepared according to the examples were evaluated for intrinsic activity and blocking effect on heart rate and peripheral vasodilator response to isoprenaline in the cat. Alprenolol was used as a reference source.
(§2) Cats weighing between 1.8 and 2.8 kg were anesthetized with 39 mg/kg pentobarbital sodium, intraperitoneally. The cat had been pre-treated with reserpine, 5 mg/kg intramuscular, about 18 hours before the experiment. Bilateral vagotomy was performed before the start of the experiment.
(§3) The heart rate was recorded on an Offner cardiotachometer triggered by the EKG-complex. Mean arterial blood pressure was recorded from a carotid artery. The peripheral resistance was measured in one of the legs of the cat in the following way: The femoral artery was opened in the inguinal region and the leg was perfused by blood delivered through a sigma motor pump at constant rate. The flow resistance (the pressure) was recorded via pressure transducer connected to the catheter distally to the pump. The paw was excluded from the circulation by a tight ligature. Intravenously injected isoprenaline increased the heart rate and reduced the perfusion pressure. An isoprenaline dose giving 70-80% of the maximal chronotropic response was determined. This dose (usually 0.1 μg/kg) was then repeated with 20-minute intervals. Ten minutes before each isoprenaline injection, the tested substances were administered intravenously for two minutes, starting with a dose of 0.01 mg/kg and increasing each subsequent dose fourfold. The intrinsic effects of the test substances were determined. The dose producing 50% blockade of the isoprenaline responses was evaluated from the plotted log dose percent blockade diagrams.

[2] = target: T2, β2-receptors of the smooth muscles (Felis catus, UniProt Q9TST5); experiment: β-blockade of isoprenaline peripheral vasodilator response (peripheral vascular resistance) in reserpinized cat; settings: iv, 50% blockade of isoprenaline (usually 0.1 μg/kg) response
T2 construct: from tissue; host or cells: vascular bed of the blood-perfused leg of the anesthetized cat, paw excluded (in vivo)
Description: as §1, §2, §3

β-receptors of the heart [3] = target: T1, β-receptors of the heart; experiment: β-blockade of isoprenaline heart rate response in reserpinized cat; settings: iv, read-out: β-blockade heart rate ED50
Description: as §1, §2, §3

[4] = reserpinized cat, i.v., 50% blockade of isoprenaline (usually 0.1 μg/kg) response

T2 sequence (Q9TST5 whole entry, the tested form may be a part): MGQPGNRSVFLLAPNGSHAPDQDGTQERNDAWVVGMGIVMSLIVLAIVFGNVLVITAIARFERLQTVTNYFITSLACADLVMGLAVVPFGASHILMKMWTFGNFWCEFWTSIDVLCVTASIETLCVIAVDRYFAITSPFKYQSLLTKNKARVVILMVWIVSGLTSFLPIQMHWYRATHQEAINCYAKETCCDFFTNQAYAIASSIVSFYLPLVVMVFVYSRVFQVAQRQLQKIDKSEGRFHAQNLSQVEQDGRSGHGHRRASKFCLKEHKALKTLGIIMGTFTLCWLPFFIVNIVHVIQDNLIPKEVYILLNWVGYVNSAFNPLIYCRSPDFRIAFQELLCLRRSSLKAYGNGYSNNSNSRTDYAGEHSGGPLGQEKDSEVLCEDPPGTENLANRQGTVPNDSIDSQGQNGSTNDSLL
T1 sequence (Q9TST6 whole entry): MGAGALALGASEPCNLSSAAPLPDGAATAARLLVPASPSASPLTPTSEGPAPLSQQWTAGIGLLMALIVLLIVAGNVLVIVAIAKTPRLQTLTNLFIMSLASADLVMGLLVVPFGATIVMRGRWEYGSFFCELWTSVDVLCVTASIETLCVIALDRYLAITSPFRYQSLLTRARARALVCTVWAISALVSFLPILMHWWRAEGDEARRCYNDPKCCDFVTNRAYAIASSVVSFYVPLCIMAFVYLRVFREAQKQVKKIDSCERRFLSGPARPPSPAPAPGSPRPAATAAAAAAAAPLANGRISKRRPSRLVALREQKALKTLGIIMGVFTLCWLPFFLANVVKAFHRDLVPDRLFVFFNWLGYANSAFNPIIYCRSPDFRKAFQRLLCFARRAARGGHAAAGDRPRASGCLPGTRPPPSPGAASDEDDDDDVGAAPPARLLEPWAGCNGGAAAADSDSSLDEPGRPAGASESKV

Row | SMILES | Emax (β-receptors of the heart [1]) | ED50 [2] | ED50 (β-receptors of the heart [3]; cat) | ED50 (β-receptors of the heart [3]; [4])
1 | COCCCc1ccc(OCC(O)CNC(C)C)c(OC)c1 (stereo not drawn) [Example 12, 1-isopropylamino-3-[2'-methoxy-4'-(3-methoxy-n-propyl)phenoxy]-propanol-2xHCl] | 0% | 5 mg/kg | 0.4 mg/kg | 
2 | COCCc1ccc(OCC(O)CNC(C)C)c(Cl)c1 (stereo not drawn) [Example 2, 1-isopropylamino-3-[2'-chloro-4'-(2-methoxyethyl)phenoxy]-propanol-2] | 0% | 3 mg/kg |  | 0.1 mg/kg
3 | CSCCc1ccc(OCC(O)CNC(C)C)c(F)c1 (stereo not drawn) [Example 11, 1-isopropylamino-3-[2'-fluoro-4'-(2-methylmercaptoethyl)phenoxy]-propanol-2xHCl] | 0% | 1 mg/kg |  | 0.2 mg/kg
4 | COCCc1ccc(OCC(O)CNC(C)C)c(Br)c1 (stereo not drawn) [Example 1, 1-isopropylamino-3-[2'-bromo-4'-(β-methoxyethyl)-phenoxy]-propanol-2] | 0% | 1 mg/kg |  | 0.03 mg/kg
5 | COCCc1ccc(OCC(O)CNC(C)C)c(F)c1 (stereo not drawn) [Example 13, 1-isopropylamino-3-[2'-fluoro-4'-(2-methoxyethyl)phenoxy]-propanol-2xHCl] | 0% | 2.7 mg/kg |  | 0.05 mg/kg
6 | COCc1ccc(OCC(O)CNC(C)C)c(OC)c1 (stereo not drawn) [Example 7, 1-isopropyalmino-3-[2'-methoxymethylphenoxy]-propanol-2] | 1% | 3 mg/kg |  | 0.6 mg/kg
7 | COCCc1ccc(OCC(O)CNC(C)C)c(COC)c1 (stereo not drawn) [Example 4, 1-isopropylamino-3-[2'-methoxymethyl-4'-(2-methoxyethyl)phenoxy]-propanol-2] | 5% | 5 mg/kg |  | 0.2 mg/kg
8 | COCCCc1ccc(OCC(O)CNC(C)C)c(Cl)c1 (stereo not drawn) [Example 5, 1-isopropylamino-3-[2'-chloro-4'-(3-methoxy-n-propyl)phenoxy]-propanol-2] | 0% | 2 mg/kg |  | 0.3 mg/kg
9 | C=CCc1cc(CCCOC)ccc1OCC(O)CNC(C)C (stereo not drawn) [Example 10, 1-isopropylamino-3-[2'-allyl-4'-(3-methoxy-n-propyl)phenoxy]-propanol-2] | 0% | 1 mg/kg |  | 0.3 mg/kg
10 | CCCc1cc(CCOC)ccc1OCC(O)CNC(C)C (stereo not drawn) [Example 9, 1-isopropylamino-3-[2'-propyl-4'-(2-methoxyethyl)phenoxy]-propanol-2] | 0% | 0.5 mg/kg |  | 0.1 mg/kg
11 | COCCc1ccc(OCC(O)CNC(C)(C)C)c(Cl)c1 (stereo not drawn) [Example 3] | 0% | 1 mg/kg |  | 0.03 mg/kg
12 | COCCCc1ccc(OCC(O)CNC(C)C)c(Br)c1 (stereo not drawn) [Example 6, 1-isopropylamino-3-[2'-bromo-4'-(3-methoxypropyl)phenoxy]-propanol-2] | 0% | 1.5 mg/kg | 0.4 mg/kg | 
13 | C=CCc1cc(CCOC)ccc1OCC(O)CNC(C)C (stereo not drawn) [Example 8, 1-isopropylamino-3-[2'-allyl-4'-(2-methoxyethyl)-phenoxyl]propanol-2] | 0% | 0.8 mg/kg |  | 0.1 mg/kg
